Laboratory results from patent US4346076A, “Bis-tetrazoylmethyl substituted cephalosporin antibiotics” (Eli Lilly and Company, priority 1980, dated 1982).
≈ marks a conversion by molar mass, not a printed value. Like-named read-outs stand apart in the source and are kept apart here.

How the values were obtained:
[1] = levels in cerebro-spinal fluid of rats; format: in vivo; settings: 20 mg/kg s.c.
[2] = system: Klebsiella sp.; assay: in vitro antibacterial activity, agar dilution; format: cell-based
Text: (§1) The bis-tetrazol-thiomethyl substituted cephalosporins of this invention are broad spectrum antibiotics which inhibit the growth of both gram positive and gram negative microorganisms which are pathogenic to man and animals. […] The following Table 2 lists the minimum inhibitory concentrations of representative compounds of the invention.
(§2) The data in TABLE 2 were obtained in the agar dilution test method using Mueller-Hinton agar containing two percent Supplement C (Difco). Serial two-fold dilutions were run with the highest concentration on test at 128 mcg/ml.

[3] = system: Staphylococcus aureus; assay: in vitro antibacterial activity, agar dilution; format: cell-based
Text: as §1, §2

[4] = system: Proteus morganii; assay: in vitro antibacterial activity, agar dilution; format: cell-based; settings: Morganella morganii; strain PR15; read-out: Minimum Inhibitory Concentration
Text: as §1, §2

[5] = system: Proteus inconstans; assay: in vitro antibacterial activity, agar dilution; format: cell-based; settings: Providencia alcalifaciens, read-out: Minimum Inhibitory Concentration
Text: as §1, §2

[6] = system: Serratia marcescens; assay: in vitro antibacterial activity, agar dilution; format: cell-based
Text: as §1, §2

[7] = system: Bordetella bronchoseptica; assay: in vitro antibacterial activity, agar dilution; format: cell-based; settings: strain 16, read-out: Minimum Inhibitory Concentration
Text: as §1, §2

[8] = system: Shigella sonnei; assay: in vitro antibacterial activity, agar dilution; format: cell-based; settings: strain N9, read-out: Minimum Inhibitory Concentration
Text: as §1, §2

[9] = system: Streptococcus pneumoniae; assay: in vitro antibacterial activity, agar dilution; format: cell-based; settings: strain PARK, read-out: Minimum Inhibitory Concentration
Text: as §1, §2

[10] = system: Salmonella sp.; assay: in vitro antibacterial activity, agar dilution; format: cell-based
Text: as §1, §2

[11] = system: Staphylococcus epidermidis; assay: in vitro antibacterial activity, agar dilution; format: cell-based
Text: as §1, §2

[12] = system: Haemophilus influenzae; assay: in vitro antibacterial activity, agar dilution; format: cell-based
Text: as §1, §2

[13] = system: Enterobacter aerogenes; assay: in vitro antibacterial activity, agar dilution; format: cell-based; settings: Klebsiella aerogenes, read-out: Minimum Inhibitory Concentration
Text: as §1, §2

[14] = system: Enterobacter cloacae; assay: in vitro antibacterial activity, agar dilution; format: cell-based
Text: as §1, §2

[15] = system: Streptococcus Group A; assay: in vitro antibacterial activity, agar dilution; format: cell-based; settings: strain C203; read-out: Minimum Inhibitory Concentration
Text: as §1, §2

[16] = system: Streptococcus Group D; assay: in vitro antibacterial activity, agar dilution; format: cell-based; settings: read-out: Minimum Inhibitory Concentration
Text: as §1, §2

[17] = system: Proteus rettgeri; assay: in vitro antibacterial activity, agar dilution; format: cell-based
Text: as §1, §2

[18] = system: Pseudomonas aeruginosa; assay: in vitro antibacterial activity, agar dilution; format: cell-based
Text: as §1, §2

[19] = system: Citrobacter freundii; assay: in vitro antibacterial activity, agar dilution; format: cell-based; settings: strain CF17, read-out: Minimum Inhibitory Concentration
Text: as §1, §2

[20] = system: Escherichia coli; assay: in vitro antibacterial activity, agar dilution; format: cell-based
Text: as §1, §2

[21] = system: Staphylococcus aureus (3055); assay: in vivo activity in infected mice; settings: sc, doses at 1 and 5 hours post infection
Experimental: (§3) Compound E (TABLE 2), a preferred compound of the invention, was administered to mice infected with various pathogens to determine the compound's effective dose (ED50). Listed below in TABLE 3 are the ED50 values determined with the indicated infectious organism. | ^1 Subcutaneous doses at 1 and 5 hours post infection

[22] = system: Streptococcus pyogenes (C203); assay: in vivo activity in infected mice; settings: sc, doses at 1 and 5 hours post infection
Experimental: as §3

[23] = system: Proteus vulgaris (PV2S); assay: in vivo activity in infected mice; settings: sc, doses at 1 and 5 hours post infection
Experimental: as §3

[24] = system: Escherichia coli (EC14); assay: in vivo activity in infected mice; settings: sc, doses at 1 and 5 hours post infection
Experimental: as §3

[25] = system: Serratia marcescens (SE3); assay: in vivo activity in infected mice; settings: sc, doses at 1 and 5 hours post infection
Experimental: as §3

[26] = system: ampicillin-resistant Haemophilus influenzae; assay: treatment of ampicillin-resistant Haemophilus influenzae meningitis in infant rats; format: in vivo
[27] = read-out: Minimum Inhibitory Concentration

In the case of `CO/N=C(\C(=O)N[C@@H]1C(=O)N2C(C(=O)O)=C(CSc3nnnn3Cc3nnn[nH]3)CS[C@H]12)c1csc(N)n1` [Compound E, syn 7β-[α-methoximino-α-(2-amino-1,3-thiazol-4-yl)-acetamido]-3-[1-(1H-tetrazol-5-ylmethyl)-1H-tetrazol-5-ylthiomethyl]-3-cephem-4-carboxylic acid], the “levels in the cerebro-spinal fluid” value [1] is reported as “present in effective levels”, the MIC ([2]; strain KAE, read-out: Minimum Inhibitory Concentration) is reported as 16 µg/mL (≈ 27.6 µM) and the MIC ([2]; strain X26, read-out: Minimum Inhibitory Concentration) is reported as 0.06 µg/mL (≈ 0.104 µM). It also gave an MIC [3, 27] of 16 µg/mL (≈ 27.6 µM), an MIC ([3]; strain V41, read-out: Minimum Inhibitory Concentration) of 8 µg/mL (≈ 13.8 µM) and an MIC ([3]; strain X1.1, read-out: Minimum Inhibitory Concentration) of 4 µg/mL (≈ 6.9 µM). For the same molecule, the MIC ([3]; strain X400, read-out: Minimum Inhibitory Concentration) was over 128 µg/mL, the MIC [4] was 0.06 µg/mL (≈ 0.104 µM) and the MIC [5] was 0.125 µg/mL (≈ 0.216 µM). It also gave an MIC ([6]; strain SE3, read-out: Minimum Inhibitory Concentration) of 1 µg/mL (≈ 1.73 µM), an MIC ([6]; strain X93, read-out: Minimum Inhibitory Concentration) of 0.25 µg/mL (≈ 0.431 µM) and an MIC [7] of 32 µg/mL (≈ 55.2 µM). It also gave an MIC [8] of 0.125 µg/mL (≈ 0.216 µM), an MIC [9] of 0.03 µg/mL (≈ 0.0518 µM) and an MIC ([10]; strain 1335, read-out: Minimum Inhibitory Concentration) of 0.25 µg/mL (≈ 0.431 µM). The MIC ([10]; strain X514, read-out: Minimum Inhibitory Concentration) was 0.125 µg/mL (≈ 0.216 µM), the MIC ([11]; strain EPI1, read-out: Minimum Inhibitory Concentration) was 16 µg/mL (≈ 27.6 µM) and the MIC ([11]; strain EPI2, read-out: Minimum Inhibitory Concentration) was 64 µg/mL (≈ 110 µM). For the same molecule, the MIC ([12]; Haemophilus influenzae, read-out: Minimum Inhibitory Concentration) was 0.125 µg/mL (≈ 0.216 µM), the “Minimum Inhibitory Concentration” value ([12]; strain 251, resistant strain) was “.125 µg/mL” and the MIC ([13]; strain C32) was 0.25 µg/mL (≈ 0.431 µM). The MIC ([13]; strain EB17) was 0.25 µg/mL (≈ 0.431 µM), the MIC ([13]; strain X68) was 0.06 µg/mL (≈ 0.104 µM) and the MIC ([14]; strain 265A, read-out: Minimum Inhibitory Concentration) was 64 µg/mL (≈ 110 µM). For the same molecule, the MIC ([14]; strain EB5, read-out: Minimum Inhibitory Concentration) was 2 µg/mL (≈ 3.45 µM), the MIC [15] was 0.06 µg/mL (≈ 0.104 µM) and the MIC ([16]; strain 9960) was 16 µg/mL (≈ 27.6 µM). For the same molecule, the MIC ([16]; strain X66) was over 128 µg/mL, the MIC ([17]; Providencia rettgeri, read-out: Minimum Inhibitory Concentration) was 0.125 µg/mL (≈ 0.216 µM) and the “Minimum Inhibitory Concentration” value ([17]; strain C24) was “.125 µg/mL”. The MIC ([18]; strain Ps18, read-out: Minimum Inhibitory Concentration) was 8 µg/mL (≈ 13.8 µM), the MIC ([18]; strain X239, read-out: Minimum Inhibitory Concentration) was 16 µg/mL (≈ 27.6 µM) and the MIC ([18]; strain X528, read-out: Minimum Inhibitory Concentration) was 8 µg/mL (≈ 13.8 µM). The MIC [19] was 32 µg/mL (≈ 55.2 µM), the MIC [20, 27] was 0.125 µg/mL (≈ 0.216 µM) and the MIC ([20]; strain EC14, read-out: Minimum Inhibitory Concentration) was 0.06 µg/mL (≈ 0.104 µM). For the same molecule, the MIC ([20]; strain N10, read-out: Minimum Inhibitory Concentration) was 0.25 µg/mL (≈ 0.431 µM), the ED50 [21] was 7.6 mg/kg and the ED50 [22] was 0.21 mg/kg. It also gave an ED50 [23] of 0.12 mg/kg, an ED50 [24] of 0.16 mg/kg and an ED50 [25] of 1 mg/kg. For the same molecule, the “effectiveness in treatment of meningitis” value [26] was “effective in the treatment”.
